Experimental data: patent US20210060016A1, “ANTICANCER AGENT” (JAPANESE FOUNDATION FOR CANCER RESEARCH, priority 2017, published 2021)

Experiments:
[1] = system: human colorectal cancer cell line COLO-320DM; assay: Cell proliferation inhibitory activity test (Celltiter-Glo); format: cell-based; conditions: 96 hours, read-out: COLO-320DM (cell proliferation inhibitory activity), G150 rating
Procedure: The cell proliferation inhibitory activity of the compound, which had been prepared in each of Compound Examples, against the human colorectal cancer cell line COLO-320DM was evaluated by Celltiter-Glo Luminescent Cell Viability Assay (Promega Corporation; G7573). COLO-320DM cells were cultured in RPMI-1640 medium containing 2 mM glutamine (Wako Pure Chemical Industries, Ltd; 189-02025) supplemented with 10% fetal bovine serum. The cultured cells were washed with PBS, and then dissociated with trypsin/EDTA, and a cell solution with 3×10^4 cells/mL was prepared.
Subsequently, the cell solution was seeded in a 96-well microplate (Thermo/Nunc Company; 136101) in an amount of 70 μL per well, and cultured overnight under the condition of 37° C. and 5% COz. The next day, a test compound solution obtained by diluting the test compound (DMSO solution) with a cell culture medium (final concentration of DMSO was 1%) was added in an amount of 10 μL per well, and the mixture was reacted under the condition of 37° C. and 5% CO2 for 96 hours (a 1% DMSO solution was used as a control). Thereafter, a Celltiter-Glo Luminescent Cell Viability Assay reagent was added (Promega Corporation; G7573) in an amount of 80 μL per well, the mixture was stirred with a shaker for 2 minutes while light was blocked with an aluminum foil, and the mixture was incubated at room temperature for 10 minutes.
Thereafter, a luminescence signal was measured with a luminometer (Biotech Company; Synergy). The ratio of cell proliferation in each compound addition group to cell proliferation in a control group containing no test compound solution, where cell proliferation in the control group is 100%, was determined, and the value of a compound concentration necessary for suppressing the amount of residual cells to 50% of that in the control (G150) was calculated as the cell proliferation inhibitory activity. For the COLO-320DM (cell proliferation inhibitory activity against COLO-320DM) of each test compound as measured through the above-mentioned method, a test compound having a G150 value of less than 1 μM was rated “A”, a test compound having a G150 value of 1 μM or more and less than 10 μM was rated “B”, a test compound having a G150 value of 10 μM or more was rated “C”, and an unevaluated test compound was designated as “NT”.

[2] = target: T1, tankyrase 2 (Homo sapiens, UniProt Q9H2K2); assay: Tankyrase inhibitory activity test (ELISA, auto-poly(ADP-ribosyl)ation), TNKS2; format: biochemical; conditions: Flag-tagged tankyrase 2 (ANK5+SAM+PARP), read-out: TNKS2 (inhibitory activity against tankyrase 2), IC50 rating
T1 construct: tankyrase 2 (613-1, 116aa, ANK5+SAM+PARP); made in house; host or cells: cell-free protein expression system
T1 sequence (Q9H2K2 613-1166): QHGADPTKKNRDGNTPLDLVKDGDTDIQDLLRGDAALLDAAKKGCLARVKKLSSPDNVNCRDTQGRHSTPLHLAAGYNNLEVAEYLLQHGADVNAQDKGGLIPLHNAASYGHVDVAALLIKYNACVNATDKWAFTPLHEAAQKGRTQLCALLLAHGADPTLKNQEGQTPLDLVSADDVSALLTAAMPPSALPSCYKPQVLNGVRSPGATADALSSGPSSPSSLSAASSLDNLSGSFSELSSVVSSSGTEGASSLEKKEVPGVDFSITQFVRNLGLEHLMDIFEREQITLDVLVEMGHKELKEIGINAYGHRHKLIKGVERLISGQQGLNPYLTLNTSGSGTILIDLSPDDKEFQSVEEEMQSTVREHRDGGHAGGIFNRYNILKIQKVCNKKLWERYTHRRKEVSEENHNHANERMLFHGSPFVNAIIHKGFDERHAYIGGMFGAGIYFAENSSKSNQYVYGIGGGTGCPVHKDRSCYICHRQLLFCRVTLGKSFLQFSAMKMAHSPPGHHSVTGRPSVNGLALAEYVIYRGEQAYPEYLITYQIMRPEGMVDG
Procedure: (§1) The enzymatic activity of tankyrase 1 and the enzymatic activity of tankyrase 2 were measured by the ELISA method based on assessment of auto-poly(ADP-ribosyl)ation to evaluate the tankyrase inhibitory activity of the compound prepared in each of Compound Examples (test compound) (inhibitory activity against tankyrase 1 (TNKS1) and inhibitory activity against tankyrase 2 (TNKS2)). First, Flag-tagged tankyrase 1 (1,024-1, 327aa, SAM+PARP) and tankyrase 2 (613-1, 116aa, ANK5+SAM+PARP) were synthesized with a cell-free protein expression system, and diluted with a Tris buffer solution (50 mM Tris-HCl (pH 8.0), 150 mM NaCl, 10% glycerol). 50 μL of the diluted tankyrase 1 or tankyrase 2 was added to a plate with an anti-FLAG M2 monoclonal antibody immobilized thereon (Anti-FLAG High-Sensitivity M2-Coated Plate) (Sigma-Aldrich), and the mixture was left to stand overnight at 4° C. Thereafter, the plate was washed four times with a PBS (PBST) buffer containing 0.1% TritonX-100.
(§2) Subsequently, the test compound diluted with an assay buffer (50 mM Tris-HCl (pH 8.0), 4 mM MgCl2, 0.2 mM DTT) (DMSO was used as a control) was added to each well of the plate, and the mixture was left to stand at room temperature for 10 minutes. Thereafter, a biotin-labeled NAD solution (225 μM NAD, 25 μM 6-Biotin-17-NAD (Travigen, Inc.)) was added and mixed as a donor substrate, and the mixture was reacted at 30° C. for 45 minutes. To blank wells was added distilled water instead of the biotin-labeled NAD solution. After the reaction, the plate was washed with a PBST buffer four times. Thereafter, HRP (horseradish peroxidase)-labeled streptavidin (Travigen, Inc.) was diluted with a PBS buffer by 1,000 times, and added to each well, and the mixture was reacted at room temperature for 20 minutes. The plate was washed with a PBST buffer four times, a chemiluminescent substrate solution TACS-Sapphire (Travigen, Inc.) was then added to each well, the mixture was reacted at room temperature for 20 minutes, and thechemiluminescence intensity was measured using a chemiluminescence measuring apparatus.
(§3) The residual enzymatic activity in the presence of the test compound was determined from the following expression. On the basis of the residual enzymatic activity at each of multiple concentrations of the test compound, the enzyme inhibitory activity was calculated in terms of a 50%-inhibition concentration (IC50 value) using data analysis software Origin (LightStone Corp.). Residual activity (%)={(chemiluminescence intensity with test compound added)−(chemiluminescence intensity of blank)}/{(chemiluminescence intensity of control)−(chemiluminescence intensity of blank))

[3] = target: T2, tankyrase 1 (Homo sapiens, UniProt O95271); assay: Tankyrase inhibitory activity test (ELISA, auto-poly(ADP-ribosyl)ation), TNKS1; format: biochemical; conditions: Flag-tagged tankyrase 1 (SAM+PARP), read-out: TNKS1 (inhibitory activity against tankyrase 1), IC50 rating
T2 construct: tankyrase 1 (1,024-1, 327aa, SAM+PARP); made in house; host or cells: cell-free protein expression system
T2 sequence (O95271 1024-1327): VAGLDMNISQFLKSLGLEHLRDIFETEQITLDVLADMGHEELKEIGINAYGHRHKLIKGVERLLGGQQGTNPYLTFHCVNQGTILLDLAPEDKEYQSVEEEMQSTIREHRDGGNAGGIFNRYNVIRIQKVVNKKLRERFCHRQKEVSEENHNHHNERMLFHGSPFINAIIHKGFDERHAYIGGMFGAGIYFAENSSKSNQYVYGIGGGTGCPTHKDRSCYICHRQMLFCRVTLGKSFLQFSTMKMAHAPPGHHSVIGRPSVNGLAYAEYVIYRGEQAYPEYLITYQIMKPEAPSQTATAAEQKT
Procedure: as §1, §2, §3

IC50 [1] | IC50 [2] | IC50 [3] | Structure (SMILES)
< 1000 nM |  |  | CN1CCCc2c1nc(N1CCC3(CC1)C(=O)N(CC#N)c1cc(F)cc(F)c13)[nH]c2=O [Example 3]
1000 to 10000 nM | < 20 nM | < 20 nM | COc1ccc(-c2n[nH]nc2C2NC(=O)c3ccccc3N2C)cc1 (stereo not drawn) [Compound Example 104, 2-[5-(4-Methoxyphenyl)-2H-1,2,3-triazol-4-yl]-1-methyl-2,3-dihydroquinazolin-4-one]
1000 to 10000 nM | < 20 nM | < 20 nM | Cc1cccc2c1NC(c1n[nH]nc1-c1ccc(OCC(F)F)cc1)NC2=O (stereo not drawn) [Compound Example 108, 2-[4-[4-(2,2-Difluoroethoxy)phenyl]-2H-1,2,3-triazol-5-yl]-8-methyl-2,3-dihydro-1H-quinazolin-4-one]
< 1000 nM |  |  | CN1CCCc2c1nc(N1CCC3(CC1)C(=O)N(C)c1cc(OCC4COC4)cc(F)c13)[nH]c2=O [Example 6]
< 1000 nM |  |  | COc1cc(F)c2c(c1)N(CCO)C(=O)C21CCN(c2nc3c(c(=O)[nH]2)CCCN3C)CC1 [Example 2]
1000 to 10000 nM | < 20 nM | < 20 nM | O=c1[nH]c(N2CCC3(CC2)CN(CCO)c2cc(F)cc(F)c23)nc2c1CCCC2 [Example 1]
1000 to 10000 nM | < 20 nM | < 20 nM | CCOc1ccc(-c2n[nH]cc2C2NC(=O)c3cccc(C)c3N2)cc1 (stereo not drawn) [Compound Example 103, 2-[5-(4-Ethoxyphenyl)-1H-pyrazol-4-yl]-8-methyl-2,3-dihydro-1H-quinazolin-4-one]
< 1000 nM | < 20 nM | < 20 nM | C[C@@H]1CN(c2cc(F)c3c(c2)N(CC(F)(F)F)C(=O)C32CCN(c3nc4c(c(=O)[nH]3)CCCN4)CC2)C[C@H](C)O1 [Example 24]
1000 to 10000 nM | < 20 nM | < 20 nM | CN1c2ccccc2C(=O)NC1c1c[nH]nc1-c1cccc(F)c1 (stereo not drawn) [Compound Example 102, 2-[3-(3-Fluorophenyl)-1H-pirazol-4-yl]-1-methyl-2,3-dihydroquinazolin-4-one]
< 1000 nM |  |  | CN1CCCc2c1nc(N1CCC3(CC1)C(=O)N(C)c1cc(N4CCN(S(C)(=O)=O)CC4)cc(F)c13)[nH]c2=O [Example 17]
< 1000 nM |  |  | COC(=O)N1CCN(c2cc(F)c3c(c2)N(C)C(=O)C32CCN(c3nc4c(c(=O)[nH]3)CCCN4C)CC2)CC1 [Example 18]
< 1000 nM | < 20 nM | < 20 nM | [2H]C([2H])([2H])Oc1ccc(-c2n[nH]nc2C2NC(=O)c3cccc(C)c3N2)cc1 (stereo not drawn) [Compound Example 107, 8-Methyl-2-[5-(4-(trideuteriomethoxy)phenyl)-2H-1,2,3-triazol-4-yl]-2,3-dihydro-1H-quinazolin-4-one]
< 1000 nM | 20 to 200 nM | < 20 nM | CN1CCCc2c1nc(N1CCC3(CC1)C(=O)N(C)c1cc(C4CCC(O)CC4)cc(F)c13)[nH]c2=O (stereo not drawn) [Example 22]
< 1000 nM |  |  | CN1CCCc2c1nc(N1CCC3(CC1)C(=O)N(C)c1cc(N4CCC(C#N)CC4)cc(F)c13)[nH]c2=O [Example 21]
< 1000 nM |  |  | C[C@@H]1CN(c2cc(F)c3c(c2)N(C)C(=O)C32CCN(c3nc4c(c(=O)[nH]3)CCCN4C)CC2)C[C@H](C)O1 [Example 19]
< 1000 nM |  |  | CN1CCN(CCOc2cc(F)c3c(c2)N(CC(F)(F)F)C(=O)C32CCN(c3nc4c(c(=O)[nH]3)CCCN4C)CC2)CC1 [Example 8]
1000 to 10000 nM | < 20 nM | < 20 nM | COc1ccc(-c2n[nH]nc2C2NC(=O)c3cccc4c3N2CC4)cc1 (stereo not drawn) [Compound Example 106, 11-[5-(4-Methoxyphenyl)-2H-1,2,3-triazol-4-yl]-1,10-diazatricyclo[6.3.1.0^4,12]dodeca-4(12),5,7-trien-9-one]
< 1000 nM |  |  | CN1CCCc2c1nc(N1CCC3(CC1)C(=O)N(CC(F)(F)F)c1cc(OCc4nnn[nH]4)cc(F)c13)[nH]c2=O [Example 10]
< 1000 nM |  |  | CN1CCCc2c(O)nc(N3CCC4(CC3)C(=O)N(CC(C)(C)O)c3cccc(F)c34)nc21 [Example 15]
< 1000 nM |  |  | CN1CCCc2c1nc(N1CCC3(CC1)C(=O)N(C)c1cc(OC4CCOCC4)cc(F)c13)[nH]c2=O [Example 7]
≥ 10000 nM | < 20 nM | < 20 nM | COc1ccc(-c2n[nH]cc2C2NC(=O)c3ccccc3N2C)cc1 (stereo not drawn) [Compound Example 109, 2-[5-(4-Methoxyphenyl)-1H-pyrazol-4-yl]-1-methyl-2,3-dihydroquinazolin-4-one]
< 1000 nM |  |  | COc1cc(F)c2c(c1)N(CC#N)C(=O)C21CCN(c2nc3c(c(=O)[nH]2)CCCN3C)CC1 [Example 4]
< 1000 nM |  |  | CN1CCN(c2cc(F)c3c(c2)N(C)C(=O)C32CCN(c3nc4c(c(=O)[nH]3)CCCN4C)CC2)CC1 [Example 5]
< 1000 nM |  |  | COC1CCN(c2cc(F)c3c(c2)N(C)C(=O)C32CCN(c3nc4c(c(=O)[nH]3)CCCN4C)CC2)CC1 [Example 20]
< 1000 nM | < 20 nM | < 20 nM | C[C@@H]1CN(c2cc(F)c3c(c2)N(C)C(=O)C32CCN(c3nc4c(c(=O)[nH]3)CCCN4)CC2)C[C@H](C)O1 [Example 23]
< 1000 nM | < 20 nM | < 20 nM | COc1ccc(-c2n[nH]nc2C2NC(=O)c3cccc(C)c3N2)cc1 (stereo not drawn) [Compound Example 105, 2-[5-(4-Methoxyphenyl)-2H-1,2,3-triazol-4-yl]-8-methyl-2,3-dihydro-1H-quinazolin-4-one]
< 1000 nM |  |  | CN1CCCc2c(O)nc(N3CCC4(CC3)OC(=O)c3cc(-c5cnn(C)c5)cc(F)c34)nc21 [Example 16]
< 1000 nM |  |  | CN1CCCc2c1nc(N1CCC3(CC1)C(=O)N(C)c1cc(N4CCC(C(=O)O)CC4)cc(F)c13)[nH]c2=O [Example 11]
< 1000 nM | < 20 nM | < 20 nM | CN1CCCc2c1nc(N1CCC3(CC1)C(=O)N(CC(F)(F)F)c1cc(OCC(=O)O)cc(F)c13)[nH]c2=O [Example 9]
< 1000 nM |  |  | CN1CCCc2c1nc(N1CCC3(CC1)C(=O)N(C)c1cc(N4CC(C(=O)O)C4)cc(F)c13)[nH]c2=O [Example 12]

Structure (SMILES) | IC50 [1] | IC50 [2] | IC50 [3]
CN1CCCc2c1nc(N1CCC3(CC1)C(=O)N(C)c1c(OC4CCOC4)ccc(Cl)c13)[nH]c2=O (stereo not drawn) [Example 13] | < 1000 nM | < 20 nM | < 20 nM
COc1ccc(Cl)c2c1N(CC(C)(C)O)C(=O)C21CCN(c2nc3c(c(=O)[nH]2)CCCN3C)CC1 [Example 14] | < 1000 nM |  | 
